How the values were obtained:
[1] = Cytotoxicity toward Neuro-2a cells (MTT assay); assay type: cell-based, mouse; conditions: mouse, Neuro-2a neuroblastoma cells, 24 h
Procedure: (§1) The cells of mouse neuroblastoma cell line Neuro-2a (ATCC® CCL-131™; American Type Culture Collection, Manassas, VA, USA) were cultured in Dulbecco’s modified Eagle’s medium (DMEM) containing 10% fetal bovine serum (Biolot, St. Petersburg, Russia) and 1% penicillin/streptomycin (Biolot, St. Petersburg, Russia) at 37 °C in a humidified atmosphere with 5% (v/v) CO2. Initially, cells were incubated in cultural flasks until sub-confluent (~80%). For testing, Neuro-2a cells were seeded in 96- or 6-well plates and experiments were started after 24 h.
(§2) The cells (1 × 10^4 cells/well of a 96-well plate) were incubated with different concentrations of studied compounds during 24 h. After that, cell viability was determined by the MTT (3-(4,5-dimethylthiazol-2-yl)-2,5-diphenyltetrazolium bromide) method according to the manufacturer’s instructions (Sigma-Aldrich, St. Louis, MO, USA). Absorbance of the converted formazan was measured using a Multiskan FC microplate photometer (Thermo Scientific, Waltham, MA, USA) at λ = 570 nm. The results were presented as percent of control data, and concentration of cell viability inhibition on 50% (IC50) was calculated.

Neuro-2a cells = assay: Cytotoxicity toward Neuro-2a cells (MTT assay); assay type: cell-based, mouse; conditions: Neuro-2a cells, 100 μM, MTT assay
Procedure: as §1, §2

[2] = DPPH radical scavenging assay (cell-free); conditions: 30 min, MeOH
Procedure: The 2,2-diphenyl-1-picryl-hydrazyl-hydrate (DPPH) radical scavenging activity was tested as described previously. The compounds were dissolved in MeOH, and the solutions (120 µL) were dispensed into wells of a 96-well microplate. The DPPH (Sigma-Aldrich, Steinheim, Germany) was dissolved in MeOH at a concentration of 7.5 × 10^−3 M and the solution (30 µL) was added to each well. The concentrations of tested compounds in the mixtures were 10 and 100 µM. Ascorbic acid was used as a positive control. The mixtures were shaken and left for 30 min. The absorbance of the resulting solutions was measured at λ = 520 nm with a MultiscanFC plate reader (Thermo Scientific, Waltham, MA, USA). The concentration scavenging 50% of the DPPH radical (EC50) was calculated for each compound.

[3] = test system: PQ-treated Neuro-2a cells; assay: Propidium iodide straining of PQ-treated Neuro-2a cells (membrane permeability); assay type: cell-based, mouse; conditions: PQ-treated cells, 24 h
Procedure: The cells (1 × 10^4 cells/well) were seeded in black 96-well plates before testing. After incubation of the cells with compounds and PQ during 24 h, PI solution (10 μg/mL) was added to each well and the plate was incubated in the dark at 37 °C for 10 min. Cells were washed with phosphate buffer saline (PBS) (BioloT, St.Peterburg, Russia) and fluorescence was measured with a Fluoroskan Ascent plate reader (Thermo Labsystems, Helsinki, Finland) at […]. All manipulations with fluorescent probes were carried out in a darkened room. The results were presented as percent of positive control data.

[4] = test system: ROS level in PQ-treated Neuro-2a cells; assay: ROS level analysis in PQ-treated Neuro-2a cells (H2DCFDA); assay type: cell-based, mouse; conditions: tested at 1 and 10 μM, PQ 500 µM 1 h
Procedure: The cells (1 × 10^4 cells/well of a 96-well plate) were incubated with compound solutions (1 and 10 µM) during 1 h. Then, PQ was added to cell suspension to a resulting concentration of 500 µM for incubation during 1 h. Cells incubated without PQ and compounds and with PQ alone were used as positive and negative controls, respectively. The 20 µL of 2,7-dichlorodihydrofluorescein diacetate solution (H2DCFDA, Molecular Probes, Eugene, OR, USA) was added to each well (10 µM, final concentration) and the plate was incubated for an additional 10 min at 37 °C. The intensity of dichlorofluorescin fluorescence was measured with a PHERAstar FS plate reader (BMG Labtech, Ortenberg, Germany) at λex = 485 nm and λem = 518 nm. The data were processed by MARS Data Analysis v. 3.01R2 (BMG Labtech, Ortenberg, Germany). The results were presented as percent of positive control data.

[5] = test system: mitochondrial membrane potential in PQ-treated Neuro-2a cells; assay: Mitochondrial membrane potential detection (TMRM) in PQ-treated Neuro-2a cells; assay type: cell-based, mouse; conditions: compound 10 μM, PQ 500 µM 1 h
Procedure: The cells (1 × 10^4 cells/well of a 96-well plate) were incubated with compound solutions (1 and 10 µM) during 1 h. Then, PQ was added to cell suspension to a resulting concentration of 500 µM for incubation during 1 h. Cells incubated without PQ and compounds and with PQ alone were used as positive and negative controls, respectively. The tetramethylrhodamine methyl (TMRM) (Sigma-Aldrich, St. Louis, MO, USA) solution at 500 nM was added in each well and cells were incubated for 30 min at 37 °C. The intensity of fluorescence was measured with a PHERAstar FS plate reader (BMG Labtech, Ortenberg, Germany) at λex = 540 nm and λem = 590 nm. The data were processed by MARS Data Analysis v. 3.01R2 (BMG Labtech, Ortenberg, Germany). The results were presented as percent of positive control data.

[6] = test system: Hsp70 level in Neuro-2a cells; assay: Hsp70 level analysis by Western blot in Neuro-2a cells; assay type: cell-based, mouse; conditions: compound 10 µM 1 h, then PQ 500 µM 24 h
Procedure: The Hsp70 expression was detected by Western blot analysis. Cell suspensions (1.6 × 10^5 cells/well of a 6-well plate) were seeded and treated with studied compounds at a concentration of 10 µM for 1 h. After that, PQ (500 µM) was added and cells were incubated during 24 h. Cells incubated without PQ and compounds and with PQ alone were used as positive and negative controls, respectively. Cells were washed by cold PBS (BioloT, Russia) twice and lysed by radioimmunoprecipitation assay (RIPA) buffer (BioloT, St. Peterburg, Russia). The amount of proteins was measured by the Bradford method and equal samples (25 µg) were prepared using sample buffer. Proteins were separated with sodium dodecyl sulphate (SDS) electrophoresis in 10% polyacrylamide gel. The electrophoretically separated proteins were transferred onto the polyvinylidene difluoride (PVDF) membrane Whatman (Sigma-Aldrich, St. Louis, MO, USA) using a semi-dry transfer apparatus (Helicon, Moscow, Russia). […] The peroxidase reaction was visualized by an enhanced chemiluminescence (ECL) kit according to the instructions of the manufacturer (Sigma-Aldrich, St. Louis, MO, USA) using the VersaDoc Imaging System (Bio-Rad, Hercules, CA, USA).

[7] = test system: PQ-treated Neuro-2a cells; assay: Neurite outgrowth estimation in PQ-treated Neuro-2a cells; assay type: cell-based, mouse
Procedure: Neurite outgrowth was studied as described by Li et al.. Neuro-2a cells were seeded in 6-well plates (1.6 × 10^5 cells/well) in DMEM medium containing 10% fetal bovine serum (Biolot, St. Peterburg, Russia) and 1% penicillin/streptomycin (Invitrogen, Carlsbad, CA, USA). The next day, this growth media was changed with serum-free DMEM media containing 1% penicillin/streptomycin, and cells were treated with studied compounds at a concentration of 10 µM for 1 h. After that, PQ (500 µM) was added and cells were incubated during 24 h. Cells incubated without PQ and compounds and with PQ alone were used as positive and negative controls, respectively.
For each well, approximately 10 images were acquired randomly by scanning the wells from left to right and top to bottom using the AxioImager A1 microscope (CarlZeiss, Oberkochen, Germany). A total of ten random fields (near 350 cells in each) for each experimental group were scored for neurite outgrowth. The number of neurite-bearing cells and lengths of the individual neurites for each cell were measured using the AxioVision 4.7.1 software (CarlZeiss, Oberkochen, Germany). Length was defined as the straight-line distance from the tip of the neurite to the junction between the cell body and neurite base. In the case of branched neurites, the length of the longest branch was measured from the tip of the neurite to the cell body. In each experimental group, the average length of neurites was calculated, as well as the average number of neurites per one cell.

[8] = test system: histamine release induced by anti-IgE; conditions: cited from earlier work
[9] = cells incubated with compound 10 µM and PQ 500 µM
[10] = compound 10 µM 1 h, then PQ 500 µM 24 h

## CC(=O)O[C@H]1CC[C@]2(C)C3=C(CC[C@H]2C1(C)C)[C@]1(C(=O)O)CC[C@H]([C@H](C)CCC=C(C)C)[C@@]1(C)CC3 [Compound 5, acetylpenasterol]
[1]; Neuro-2a cell viability, 10 μM, read-out: Cytotoxicity (MTT Assay) % of Control at 10 μM
  activity at 24 h, 10 µM: 97.9 ± 3.3%
[1]; Neuro-2a cells
  IC50 at 24 h: > 100 µM
Neuro-2a cells
  death of cells: 45.6%
[2]
  EC50: > 100 µM
[3]; compound 1 μM pre-incubation
  decrease of fluorescence of PI-straining cells: 20%
[3]; compound 10 μM pre-incubation
  decrease of fluorescence of PI-straining cells: 24%
[4]
  concentrations at which ROS content in PQ-treated cells was reduced: effective at concentrations of 1 and 10 μM
[5]
  increase of intensity of TMRM fluorescence (PQ-induced mitochondrial dysfunction diminished): 35%
[6]
  effect on Hsp70 level in PQ-treated cells: raised it to the initial level
[7]; [9]
  proportion of neurites with a length of 0–4.99 µm in the total number: 6.4%
  proportion of neurites with a length of 10.00–14.99 µm in the total number: 20.7%
[7]; [10]
  increase in the average number of neurites per cell: 20%
  increase of neurites-bearing cell amount compared to PQ-treated control: 144%
[8]
  inhibition of histamine release induced by anti-IgE: inhibitors of histamine release

From article PMC7698842, “Lanostane Triterpenoid Metabolites from a Penares sp. Marine Sponge Protect Neuro-2a Cells against Paraquat Neurotoxicity” (Molecules, 2020)
